Measured values as given in patent US20120245154A1, “SUBSTITUTED AMINOTHIAZINE DERIVATIVE” (SHIONOGI & CO., LTD., priority 2009, published 2012).
Blank lines part the entries; values can stand above or below the compound they belong to.

Columns and labels:
CYP1A2 = target: T1, CYP1A2 (Homo sapiens, UniProt P05177); assay: CYP inhibition test (7-ethoxyresorufin O-deethylation); format: in vitro ADME; settings: pooled human hepatic microsome, 0.5 μmol/L ethoxyresorufin
T1 construct: enzyme, pooled human hepatic microsome 0.2 mg protein/mL; from tissue; host or cells: pooled human hepatic microsomes
T1 sequence (P05177 1-516): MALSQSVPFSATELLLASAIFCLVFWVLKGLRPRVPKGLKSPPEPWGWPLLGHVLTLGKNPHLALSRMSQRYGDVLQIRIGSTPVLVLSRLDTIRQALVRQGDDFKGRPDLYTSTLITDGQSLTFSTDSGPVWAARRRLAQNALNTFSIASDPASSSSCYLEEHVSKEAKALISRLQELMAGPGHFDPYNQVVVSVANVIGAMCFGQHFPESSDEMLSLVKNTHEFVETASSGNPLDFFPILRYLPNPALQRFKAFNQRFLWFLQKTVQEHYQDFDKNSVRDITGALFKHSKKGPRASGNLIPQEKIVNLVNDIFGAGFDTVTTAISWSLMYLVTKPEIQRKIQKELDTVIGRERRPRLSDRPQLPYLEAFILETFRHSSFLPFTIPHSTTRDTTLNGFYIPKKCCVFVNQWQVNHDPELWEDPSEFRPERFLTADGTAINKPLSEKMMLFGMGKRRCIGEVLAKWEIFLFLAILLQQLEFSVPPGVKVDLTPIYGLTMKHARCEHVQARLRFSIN
Experimental: (§1) Using commercially available pooled human hepatic microsome, and employing, as markers, 7-ethoxyresorufin O-deethylation (CYP1A2), tolbutamide methyl-hydroxylation (CYP2C9), mephenyloin 4′-hydroxylation (CYP2C19), dextromethorphan O-demethylation (CYP2D6), and terfenedine hydroxylation (CYP3A4) as typical substrate metabolism reactions of human main five CYP enzyme forms (CYP1A2, 2C9, 2C19, 2D6, 3A4), an inhibitory degree of each metabolite production amount by a test compound was assessed. […]
(§2) Each five kinds of substrates, human hepatic microsome, or a test drug in 50 mM Hepes buffer as a reaction solution was added to a 96-well plate at the composition as described above, NADPH, as a cofactor was added to initiate metabolism reactions as markers and, after the incubation at 37° C. for 15 minutes, a methanol/acetonitrile=1/1 (v/v) solution was added to stop the reaction. After the centrifugation at 3000 rpm for 15 minutes, resorufin (CYP1A2 metabolite) in the supernatant was quantified by a fluorescent multilabel counter and tributamide hydroxide (CYP2CP metabolite), mephenyloin 4′ hydroxide (CYP2C19 metabolite), […], and terfenadine alcohol (CYP3A4 metabolite) were quantified by LC/MS/MS. […]

CYP2C9 = target: T2, CYP2C9 (Homo sapiens, UniProt P11712); assay: CYP inhibition test (tolbutamide methyl-hydroxylation); format: in vitro ADME; settings: pooled human hepatic microsome
T2 construct: enzyme, pooled human hepatic microsome 0.2 mg protein/mL; from tissue; host or cells: pooled human hepatic microsomes
Experimental: as §1, §2

CYP2C19 = target: T3, CYP2C19 (Homo sapiens, UniProt P33261); assay: CYP inhibition test (mephenyloin 4′-hydroxylation); format: in vitro ADME; settings: pooled human hepatic microsome, 50 μmol/L S-mephenitoin
T3 construct: enzyme, pooled human hepatic microsome 0.2 mg protein/mL; from tissue; host or cells: pooled human hepatic microsomes
Experimental: as §1, §2

CYP2D6 = target: T4, CYP2D6 (Homo sapiens, UniProt P10635); assay: CYP inhibition test (dextromethorphan O-demethylation); format: in vitro ADME; settings: pooled human hepatic microsome, 5 μmol/L dextromethorphan
T4 construct: enzyme, pooled human hepatic microsome 0.2 mg protein/mL; from tissue; host or cells: pooled human hepatic microsomes
Experimental: as §1, §2

CYP3A4 [1] = target: T5, CYP3A4 (Homo sapiens, UniProt P08684); assay: CYP inhibition test (terfenedine hydroxylation); format: in vitro ADME; design: enzyme, pooled human hepatic microsome 0.2 mg protein/mL; from tissue; host or cells: pooled human hepatic microsomes; settings: pooled human hepatic microsome, 1 μmol/L terfenedine
Experimental: as §1, §2

Solubility test = format: physicochemical; settings: JP-I medium, pH 1.2, simulated gastric fluid, kinetic from dmso stock, from turbidity after 4 hours, read-out: solubility assessed by 3 stages
Experimental: A 2-fold dilution series (12 points) of a 10 mM solution of a test compound in DMSO was added to a medium (JP-I, JP-II) (2%), and solubility was assessed by 3 stages (High; >40 μM, Medium; 3-40 μM, Low; <3 μM) from a turbidity after 4 hours (crystallization information).
The preparation method of solution was as follows: A 10 mM solution of the compound was prepared with DMSO, and 6 μL of the compound solution was added to 594 μL of an artificial intestinal juice (water and 118 mL of 0.2 mol/L NaOH reagent were added to 250 mL of 0.2 mol/L potassium dihydrogen phosphate reagent to reach 1000 mL) with a pH of 6.8. The mixture was left standing for 16 hours at 25° C., and the mixture was vacuum-filtered. The filtrate was two-fold diluted with methanol/water=1/1.

Recombinant human BACE1 = target: T6, Recombinant human BACE1 (Homo sapiens, UniProt P56817); assay: Assay of BACE1 inhibiting activity; format: biochemical; settings: Recombinant human BACE1 7.4 nM, substrate peptide 18 nM, pH 5.0, 30° C., 3 hours; read-out: IC50 (50% inhibitory concentration against the enzymatic activity)
T6 construct: purchased R&D Systems
Experimental: 48.5 μL of substrate peptide solution (Biotin-XSEVNLDAEFRHDSGC-Eu: X=ε-amino-n-capronic acid, Eu=Europium cryptate) was added to each well of 96-hole half-area plate (a black plate: Corning Incorporated), and after addition of 0.5 μl of the test compound (dissolved in […]) and 1 μl of Recombinant human BACE1(R&D Systems), the reaction mixture was incubated at 30° C. for 3 hours. The substrate peptide was synthesized by reacting Cryptate TBPCOOH mono SMP (CIS bio international) with Biotin-XSEVNLDAEFRHDSGC (Peptide Institute, Inc.). […]
After the incubation for reaction, 50 μl of 8.0 μg/ml Streptavidin-XL665(CIS bio international) dissolved in phosphate buffer (150 mM K2HPO4—KH2PO4, pH 7.0, 0.008% Triton X-100, 0.8 M KF) was added to each well and left stand at 30° C. for an hour. After then, fluorescence intensity was measured (excitation wavelength: 320 nm, measuring wavelength: 620 nm and 665 nm) using Wallac 1420 multilabel counter (Perkin Elmer life sciences). Enzymatic activity was determined from counting ratio of each wavelength (10,000×Count 665/Count 620) and 50% inhibitory concentration against the enzymatic activity was calculated.

[2] = tested on: Neuroblastoma SH-SY5Y cells (SH/APPwt) with human wild-type β-APP excessively expressed; assay: Measurement of β-amyloid (Aβ) production inhibitory effect in cell; format: cell-based; settings: 24 hours, Aβ 1-40 in culture supernatant by HTRF, read-out: IC50 (amount needed to inhibit Aβ production by 50%)
Experimental: Neuroblastoma SH-SY5Y cells (SH/APPwt) with human wild-type β-APP excessively expressed therein were prepared at 8×10^5 cells/mL, and 150 μl portions thereof were inoculated into respective wells of a 96-well culture plate (Falcon). The cells were cultured for 2 hours at 37° C. in a 5% gaseous carbon dioxide incubator. Then, a solution which had been preliminarily prepared by adding and suspending the test compound (DMSO (dimethyl sulfoxide) solution) so as to be 2 μl/50 μl medium was added to the cell sap. Namely, the final DMSO concentration was 1%, and the amount of the cell culture was 200 μl. After the incubation was performed for 24 hours from the addition of the test compound, 100 μl of the culture supernatant was collected from each fraction. The amount of the Aβ in each fraction was measured.
The Aβ amount was measured as follows. 10 μl of a homogeneous time resolved fluorescence (HTRF) measurement reagent (Amyloid-β 1-40 peptide; IBA Molecular Holding, S.A.) and 10 μl of the culture supernatant were put into a 384-well half area microplate (black microplate, Costar) and mixed with each other, and then left standing overnight at 4° C. while the light was shielded. Then, the fluorescence intensity (excitation wavelength: 337 nm, measurement wavelength: 620 nm and 665 nm) was measured with a Wallac 1420 multilabel counter (Perkin Elmer life sciences). […]

[3] = Metabolism stability test; format: in vitro ADME; settings: human liver microsomes 0.5 mg protein/mL, 1 mmol/L NADPH, 37° C., 30 minutes
Experimental: Using a commercially available pooled human hepatic microsomes, a test compound was reacted for a constant time, a remaining rate was calculated by comparing a reacted sample and an unreacted sample, thereby, a degree of metabolism in liver was assessed.
A reaction was performed (oxidative reaction) at 37° C. for 0 minute or 30 minutes in the presence of 1 mmol/L NADPH in 0.2 mL of a buffer (50 mmol/L Tris-HCl pH 7.4, 150 mmol/L potassium chloride, 10 mmol/L magnesium chloride) containing 0.5 mg protein/mL of human liver microsomes. After the reaction, 50 μL of the reaction solution was added to 100 μL of a methanol/acetonitrile=1/1 (v/v), mixed and centrifuged at 3000 rpm for 15 minutes. The test compound in the supernatant was quantified by LC/MS/MS, and a remaining amount of the test compound after the reaction was calculated, letting a compound amount at 0 minute reaction time to be 100%.

CYP3A4 [4] = target: T5, CYP3A4; assay: CYP3A4 fluorescent MBI test; format: in vitro ADME; design: host or cells: Escherichia coli; settings: CYP3A4 expressed in Escherichia coli, substrate 7-BFC
Experimental: The CYP3A4 fluorescent MBI test is a test of investigating enhancement of CYP3A4 inhibition of a compound by a metabolism reaction, and the test was performed using, as CYP3A4 enzyme expressed in Escherichia coli and employing, as an index, a reaction in which 7-benzyloxytrifluoromethylchmarin (7-BFC) is debenzylated by the CYP3A4 enzyme to produce a metabolite, 7-hydroxytrifluoromethylchmarin (HFC) emitting fluorescent light.
The reaction conditions were as follows: substrate, 5.6 μmol/L 7-BFC; pre-reaction time, 0 or 30 minutes; reaction time, 15 minutes; reaction temperature, 25° C. […]
An enzyme in a K-Pi buffer (pH 7.4) and a test drug solution as a pre-reaction solution were added to a 96-well plate at the composition of the pre-reaction, a part of it was transferred to another 96-well plate so that it was 1/10 diluted by a substrate in a K-Pi buffer, NADPH as a co-factor was added to initiate a reaction as an index (without preincubation) and, after a predetermined time of a reaction, acetonitrile/0.5 mol/L Tris (trishydroxyaminomethane)=4/1 was added to stop the reaction. […] For the plate on which each index reaction had been performed, a fluorescent value of 7-HFC which is a metabolite was measured with a fluorescent plate reader. […]

T5 sequence (P08684 whole entry): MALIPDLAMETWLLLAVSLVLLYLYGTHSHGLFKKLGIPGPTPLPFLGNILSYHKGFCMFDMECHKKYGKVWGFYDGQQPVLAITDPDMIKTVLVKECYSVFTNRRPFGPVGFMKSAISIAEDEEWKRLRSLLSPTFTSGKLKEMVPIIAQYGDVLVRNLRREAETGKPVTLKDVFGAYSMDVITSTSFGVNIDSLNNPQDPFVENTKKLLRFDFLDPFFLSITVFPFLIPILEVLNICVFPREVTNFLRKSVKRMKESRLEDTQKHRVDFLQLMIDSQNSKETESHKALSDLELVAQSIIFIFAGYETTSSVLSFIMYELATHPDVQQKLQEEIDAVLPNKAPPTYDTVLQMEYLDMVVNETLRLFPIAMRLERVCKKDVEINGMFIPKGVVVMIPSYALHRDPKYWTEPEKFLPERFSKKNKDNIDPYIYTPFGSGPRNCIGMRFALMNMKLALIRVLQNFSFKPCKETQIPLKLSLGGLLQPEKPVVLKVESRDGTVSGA
T2 sequence (P11712 whole entry): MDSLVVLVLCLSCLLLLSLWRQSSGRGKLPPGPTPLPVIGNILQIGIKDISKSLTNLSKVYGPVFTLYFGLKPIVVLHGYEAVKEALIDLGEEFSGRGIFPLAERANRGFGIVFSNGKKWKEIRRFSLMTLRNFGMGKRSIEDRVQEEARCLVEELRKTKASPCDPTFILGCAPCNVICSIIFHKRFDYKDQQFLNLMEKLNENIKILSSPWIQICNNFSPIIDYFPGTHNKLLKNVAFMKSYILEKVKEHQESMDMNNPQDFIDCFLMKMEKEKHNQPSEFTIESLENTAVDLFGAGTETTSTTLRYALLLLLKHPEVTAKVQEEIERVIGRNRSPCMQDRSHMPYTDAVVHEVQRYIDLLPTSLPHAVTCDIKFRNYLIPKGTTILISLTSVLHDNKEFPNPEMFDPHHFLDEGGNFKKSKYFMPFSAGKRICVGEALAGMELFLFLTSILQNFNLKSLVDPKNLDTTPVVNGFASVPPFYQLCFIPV
T4 sequence (P10635 whole entry): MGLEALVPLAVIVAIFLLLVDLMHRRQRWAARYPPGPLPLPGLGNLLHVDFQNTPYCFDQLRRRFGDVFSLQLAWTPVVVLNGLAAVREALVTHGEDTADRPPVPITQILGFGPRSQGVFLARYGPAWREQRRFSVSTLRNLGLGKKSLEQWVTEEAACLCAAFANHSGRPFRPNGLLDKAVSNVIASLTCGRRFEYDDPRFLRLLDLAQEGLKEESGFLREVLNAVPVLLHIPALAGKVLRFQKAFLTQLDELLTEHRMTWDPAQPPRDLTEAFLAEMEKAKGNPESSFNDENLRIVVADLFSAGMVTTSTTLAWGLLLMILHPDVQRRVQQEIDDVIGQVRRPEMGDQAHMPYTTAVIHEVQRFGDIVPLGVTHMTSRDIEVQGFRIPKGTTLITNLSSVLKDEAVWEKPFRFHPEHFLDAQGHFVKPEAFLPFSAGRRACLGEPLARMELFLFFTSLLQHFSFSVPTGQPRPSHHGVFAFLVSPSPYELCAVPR
T6 sequence (P56817 46-501): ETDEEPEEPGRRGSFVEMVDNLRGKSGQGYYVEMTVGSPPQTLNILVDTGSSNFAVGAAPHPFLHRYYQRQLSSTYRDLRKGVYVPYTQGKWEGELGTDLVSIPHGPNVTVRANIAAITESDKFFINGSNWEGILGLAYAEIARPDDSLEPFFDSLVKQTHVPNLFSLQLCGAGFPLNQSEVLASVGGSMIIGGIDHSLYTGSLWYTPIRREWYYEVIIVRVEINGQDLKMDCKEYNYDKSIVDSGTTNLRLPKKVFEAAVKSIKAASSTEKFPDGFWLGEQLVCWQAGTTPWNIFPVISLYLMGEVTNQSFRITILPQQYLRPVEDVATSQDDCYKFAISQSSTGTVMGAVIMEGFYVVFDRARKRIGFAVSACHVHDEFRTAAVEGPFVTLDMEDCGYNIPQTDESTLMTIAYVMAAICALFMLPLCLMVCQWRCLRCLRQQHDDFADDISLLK
T3 sequence (P33261 whole entry): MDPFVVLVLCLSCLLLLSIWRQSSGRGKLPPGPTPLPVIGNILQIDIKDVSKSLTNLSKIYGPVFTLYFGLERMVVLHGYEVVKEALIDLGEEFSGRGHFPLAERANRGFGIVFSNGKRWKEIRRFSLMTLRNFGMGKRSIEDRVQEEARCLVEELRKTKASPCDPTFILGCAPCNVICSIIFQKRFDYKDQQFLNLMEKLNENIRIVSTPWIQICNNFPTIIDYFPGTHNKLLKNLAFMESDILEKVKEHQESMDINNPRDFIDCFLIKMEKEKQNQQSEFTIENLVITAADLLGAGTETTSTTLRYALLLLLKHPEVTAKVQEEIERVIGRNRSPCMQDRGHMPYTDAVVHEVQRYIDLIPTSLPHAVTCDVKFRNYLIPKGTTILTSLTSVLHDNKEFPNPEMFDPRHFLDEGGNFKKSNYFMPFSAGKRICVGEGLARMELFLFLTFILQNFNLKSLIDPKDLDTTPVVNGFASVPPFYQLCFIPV

IC50 (CYP1A2): > 21 µM | IC50 (CYP2C9): > 21 µM | IC50 (CYP2C19): > 21 µM | IC50 (CYP2D6): > 21 µM | IC50 (CYP3A4 [1]): > 21 µM
Compound: COCCNC(=O)C1=C[C@@](C)(c2cc(NC(=O)c3ccc(C#N)cn3)ccc2F)N=C(N)S1 [Compound I-2]

solubility at 4 h (Solubility test): > 40 µM
Compound: C[C@@]1(c2cc(NC(=O)c3ccc(C#N)cn3)ccc2F)C=C(CO)SC(N)=N1 [Compound I-6]

IC50 (Recombinant human BACE1): 0.012 µM | IC50 [2]: 0.002 µM
Compound: CCC1=C[C@@](C)(c2cc(NC(=O)c3ccc(C#N)cn3)ccc2F)N=C(N)S1 [Compound I-8]

remaining amount of the test compound after the reaction [3]: 96.4%
Compound: COc1cnc(C(=O)Nc2ccc(F)c([C@]3(C)C=C(C(C)(C)O)SC(N)=N3)c2)cn1 [Compound I-19]

Compound: C[C@@]1(c2cc(NC(=O)c3ccc(C#N)cn3)ccc2F)C=C(c2ccccn2)SC(N)=N1 [Compound I-20]
CYP3A4 MBI: difference between IC50 values (pre-reaction time 0 or 30 minutes) (CYP3A4 [4]): (−) (when the difference is 3 μM or less, this was defined as (−))
